The target of one test is FKBP (Homo sapiens, UniProt P62942). In words: PPIase Inhibition Assay. The class given is biochemical. Conditions: concentration of inhibitor required for 50% inhibition of enzyme activity; FKBP, substrate Succinyl-Ala-Phe-Pro-Phe-para-nitroanilide; TABLE I. Put shortly:
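Chymotrypsin-coupled isomerization of Succinyl-Ala-Phe-Pro-Phe-para-nitroanilide by FKBP in ice-cold 25 mM HEPES pH 7.8, 100 mM NaCl, compound in DMSO. A390 followed 90 sec; first-order rate constants give % activity remaining after subtracting uncatalyzed rate; IC50 by linear regression of V-/V+ versus concentration.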

The subject of a further test is human T-cells. In words: Suppression of Human T-Cell Proliferation Assay (PHA-stimulated, [3H]-thymidine incorporation). The class given is cell-based. Conditions: concentration inhibiting [3H]-thymidine incorporation of PHA-stimulated T-cells by 50%, 72 hours; TABLE 2; read-out: IC50. Put shortly: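 SRBC-rosette-purified human peripheral T-cells stimulated with PHA-M (40 μg/ml stock) and compound dilutions, in duplicate, for 72 h at 37° C. Proliferation measured by [3H]-thymidine incorporation during the final 6 h, read by liquid scintillation counting.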

The subject of test [1] is graft versus host response. In words: Mouse Lymph Node Assay for Modulation of Graft versus Host Response. Conditions: mice, 100 mg/kg per day intraperitoneal, after 7 days; popliteal lymph nodes, C57 B1/6-injected limb divided by BDF1-injected limb. The test is classed as in vivo. From the text: 4) Graft versus Host Assay
Transfer of parental strain T-cells (the graft) into F1 hybrid animals (the host) major different with respect to gene products of the histocompatibility complex (MHC) causes a GVHR. This reaction results from recognition of host allogeneic MHC gene products by specific clones of graft T-cells.
When given systemically in sufficient numbers, the graft T-cells cause a progressive, generally fatal, wasting syndrome. A local, nonfatal GVHR, marked by enlargement of the draining popliteal lymph nodes, ensues when graft T-cells are administered via the footpad as described by Ford et al., 1970, Transplantation 10:258. The GVHR is regarded as a correlate of allograft rejections where specific T-cells of either host or allograft origin are activated after recognition of allogeneic MHC gene products, leading to an immune inflammatory response which ultimately results in the destruction (rejection) of the allograft.
Mouse Lymph Node Assay for Modulation of Graft versus Host Response […]
After 7 days, the draining popliteal lymph nodes from the hind limbs were dissected out and weighed. The magnitude of the GVHR was expressed as the ratio of the mean weight of lymph nodes from the limb injected with semi-allogeneic C57 B1/6 cells divided by the mean weight of lymph nodes from the limb injected with syngeneic BDF1 cells.

In a further test the test system is NF-AT. In words: NF-AT Inhibition Assay Directed β-Galactosidase Expression in FGL-5 cells. The class given is cell-based. Conditions: 50% inhibition of NF-AT directed β-galactosidase activity in FGL-5 cells stimulated with phorbol dibutyrate and ionomycin; TABLE 3. An outline of the steps:
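FGL-5 Jurkat cells (3 million cells/ml) carry NF-AT-site-driven lacZ. They were stimulated with phorbol dibutyrate plus ionomycin and incubated with compound 16-18 h at 37 °C, in duplicate wells with matched ethanol or DMSO vehicle controls. β-Galactosidase was read as fluorescence from 4-methylumbelliferyl-β-D-galactoside cleavage, giving percent inhibition.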

The results in this text go back to US5686424A, “2-oxoethyl derivatives as immunosuppressants” (Miles Inc., priority 1995, dated 1997).

pIC50: −log10 of the molar value. Counter-ions that a name gives are not always drawn.

Chain of FKBP (P62942 whole entry): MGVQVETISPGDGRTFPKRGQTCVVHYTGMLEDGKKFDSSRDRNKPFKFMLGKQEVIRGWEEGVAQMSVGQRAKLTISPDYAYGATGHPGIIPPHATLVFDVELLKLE

Turning to `CC[C@H](C)[C@H](NC(=O)[C@@H]1CCCN1CC(=O)C12CC3CC(CC(C3)C1)C2)C(=O)NCc1ccccc1` [Example 24, L-Isoleucine, N-[1-(2-Adamantan-1-yl-2-Oxoethyl)-L-Prolyl] Benzylamide], the negative logarithm of the IC50 (pIC50) at FKBP is 7.22; in the test with human T-cells it was 4.92. For the same compound, in test [1], the “Lymph Node Weight Ratio” value turned out to be 1.2.

As for `COc1cc(C(=O)CN2CCCC[C@H]2C(=O)N[C@H](/C=C/c2ccccc2)CC(C)C)cc(OC)c1OC` [Example 151, L-Homoproline, 1-[2-(3,4,5-Trimethoxyphenyl)-2-Oxoethyl] (1-(S)-[2'-(S)-methylpropyl]-3-phenylprop-2-E-enyl)-amide], the pIC50 against FKBP is less than 5.30; in the test with human T-cells it was 5.40; in the test on NF-AT, less than 4.82.

`COc1cc(C(=O)CN2CCCC[C@H]2C(=O)N[C@@H](CCc2ccccc2)CC(C)C)cc(OC)c1OC` [Example 152, L-Homoproline, 1-[2-(3,4,5-Trimethoxyphenyl)-2-Oxoethyl] (1-(S)-[2'-(S)-methylpropyl]-3-phenylpropyl)-amide]: the pIC50 on FKBP was less than 5.30; with human T-cells, 5.10; in the test on NF-AT, less than 4.82.

Regarding `COc1cc(C(=O)CN2CCC[C@H]2C(=O)NCCc2ccc(NC(C)=O)cc2)cc(OC)c1OC` [Example 154, L-Proline, 1-[2-(3,4,5-Trimethoxyphenyl)-2-Oxoethyl] 2-(4-(N-Acetyl)aminophenyl)ethylamide], the pIC50 at FKBP was less than 5.30; with human T-cells, 4.89; with NF-AT it was less than 4.82.

Regarding `COc1cc(C(=O)CN2CCC[C@H]2C(=O)NCCc2ccc(NC(=O)c3ccccc3)cc2)cc(OC)c1OC` [Example 155, L-Proline, 1-[2-(3,4,5-Trimethoxyphenyl)-2-Oxoethyl] 2-(4-(N-Benzoyl)aminophenyl)ethylamide], the negative-log IC50 (pIC50) on FKBP is less than 5.30; in the test on human T-cells it was 5.05; in the test on NF-AT, less than 4.82.

With `C=CCOC(=O)Nc1ccc(CCNC(=O)[C@@H]2CCCN2CC(=O)c2cc(OC)c(OC)c(OC)c2)cc1` [Example 156, L-Proline, 1-[2-(3,4,5-Trimethoxyphenyl)-2-Oxoethyl] 2-(4-(N-carboalloxy)aminophenyl)ethylamide], the pIC50 against FKBP is less than 5.30; with human T-cells it was 5.22; in the test with NF-AT, less than 4.82.

For `COc1cc(C(=O)CN2CCC[C@H]2C(=O)NCCc2ccc(NC(=O)OCc3ccccc3)cc2)cc(OC)c1OC` [Example 157, L-Proline, 1-[2-(3,4,5-Trimethoxyphenyl)-2-Oxoethyl] 2-(4-(N-Carbobenzyloxy)aminophenyl)ethylamide], the negative logarithm of the IC50 (pIC50) on FKBP is less than 5.30; in the test on human T-cells it was 5.30; with NF-AT, less than 4.82.

Regarding `C=CCOC(=O)Nc1ccc(CCCOC(=O)[C@@H]2CCCCN2CC(=O)c2cc(OC)c(OC)c(OC)c2)cc1` [Example 159, L-Homoproline, 1-[2-(3,4,5-Trimethoxyphenyl)-2-Oxoethyl] 3-(4-(N-Carboallyloxy)aminophenyl)propyl Ester Hydrochloride], the negative logarithm of the IC50 (pIC50) on FKBP is less than 5.30; with human T-cells, 5.00; in the test on NF-AT, 5.52.

As for `C=CCOC(=O)Nc1ccc(CCCOC(=O)[C@@H]2CCCN2CC(=O)C23CC4CC(CC(C4)C2)C3)cc1` [Example 160, L-Proline, 1-[2-Adamantan-1-yl-2-Oxoethyl] 3-(4-(N-Carboallyloxy)aminophenyl)propyl Ester Hydrochloride], the figures for the negative logarithm of the IC50 (pIC50) against FKBP, with human T-cells and in the test on NF-AT were less than 5.30, less than 4.82 and less than 4.82, respectively.

As for `C=CCOC(=O)Nc1ccc(CCCOC(=O)[C@@H]2CCCCN2CC(=O)C23CC4CC(CC(C4)C2)C3)cc1` [Example 161, L-Homoproline, 1-[2-Adamant-1-yl-2-Oxoethyl] 3-(4-(N-Carboallyloxy)aminophenyl)propyl Ester Hydrochloride], the negative-log IC50 (pIC50) on FKBP was less than 5.30; with human T-cells it was 5.05; in the test with NF-AT, less than 4.82.

The pIC50 is the IC50 on a negative log10 scale, so that one unit is a factor of ten.
